Experimental data reported in the NIST ThermoML archive (doi:10.1021/je900279z).

Details: Gas, Oscillating disk viscometry

[Ar] [argon]
Details	viscosity [mPa·s]
300.11 K, 400 kPa	0.02271
300.17 K, 103 kPa	0.02279
300.19 K, 199 kPa	0.02265
300.25 K, 302 kPa	0.02265
300.32 K, 832 kPa	0.02286
300.38 K, 616 kPa	0.0228
300.49 K, 2082 kPa	0.02335
300.54 K, 3089 kPa	0.02347
300.56 K, 4050 kPa	0.02364
300.58 K, 4503 kPa	0.02383
300.63 K, 3427 kPa	0.02343
300.66 K, 2759 kPa	0.02338
300.68 K, 1446 kPa	0.02313
300.7 K, 3729 kPa	0.02351
300.72 K, 2458 kPa	0.02338
300.76 K, 1775 kPa	0.02325
300.89 K, 1117 kPa	0.02293

FC(F)CC(F)(F)F [1,1,1,3,3-pentafluoropropane]
Details	viscosity [mPa·s]
300.81 K, 136 kPa	0.01064
300.88 K, 113 kPa	0.01065
300.93 K, 107 kPa	0.01066
320.26 K, 145 kPa	0.01124
320.33 K, 186 kPa	0.01125
320.53 K, 108 kPa	0.01127
320.58 K, 254 kPa	0.01127
338.61 K, 100 kPa	0.01186
338.61 K, 435 kPa	0.01186
338.98 K, 307 kPa	0.01184
339.02 K, 207 kPa	0.01186
339.15 K, 145 kPa	0.01186
357.15 K, 592 kPa	0.01252
357.23 K, 104 kPa	0.01256
357.23 K, 305 kPa	0.01253
357.38 K, 159 kPa	0.01255
357.39 K, 108 kPa	0.01256
357.4 K, 224 kPa	0.01254
357.43 K, 403 kPa	0.01252
357.43 K, 708 kPa	0.01252
357.52 K, 503 kPa	0.01252
376.25 K, 164 kPa	0.01303
376.38 K, 254 kPa	0.01303
376.39 K, 567 kPa	0.01306
376.43 K, 1071 kPa	0.01318
376.46 K, 107 kPa	0.01304
376.54 K, 348 kPa	0.01304
376.58 K, 676 kPa	0.01308
376.61 K, 457 kPa	0.01305
376.61 K, 945 kPa	0.01314
376.63 K, 1312 kPa	0.01339
376.64 K, 797 kPa	0.0131
395.6 K, 109 kPa	0.01357
395.66 K, 213 kPa	0.01355
395.77 K, 311 kPa	0.01358
395.8 K, 417 kPa	0.01359
395.81 K, 823 kPa	0.0137
395.85 K, 512 kPa	0.01362
395.93 K, 616 kPa	0.01364
395.93 K, 723 kPa	0.01366
396 K, 934 kPa	0.01374
396.02 K, 1280 kPa	0.01396
396.17 K, 1390 kPa	0.01408
396.22 K, 1164 kPa	0.01388
396.24 K, 1044 kPa	0.01386
396.35 K, 1505 kPa	0.01416
396.46 K, 1614 kPa	0.0143
